The source of these data is ChEMBL document CHEMBL5543057, “Hydrophobic tag-based protein degradation: Development, opportunity and challenge” (Eur J Med Chem, 2023).

Data set [1] can be described thus: Half life in Sprague-Dawley rat at 50 mg/kg, ip measured for 24 hrs by LC-MS/MS analysis. The conditions noted are these: in vivo. It is filed as ADME, organism-based.
The nature of data set [2]: Clearance in Sprague-Dawley rat at 50 mg/kg, ip measured after 24 hrs by LC-MS/MS analysis. It is filed as ADME, organism-based. The settings on record: in vivo.
Data set [3] is described as follows: Clearance in Sprague-Dawley rat at 1 mg/kg, iv measured for 24 hrs by LC-MS/MS analysis. It is filed as ADME, organism-based. The conditions noted are these: in vivo.
A short description of data set [4]: Oral bioavailability in Sprague-Dawley rat at 1 mg/kg by LC/MS/MS analysis. The class given is ADME, organism-based. The conditions noted are these: in vivo.
A short description of data set [5]: Half life in Sprague-Dawley rat at 1 mg/kg, iv measured for 24 hrs by LC-MS/MS analysis. The class given is ADME, organism-based. The conditions noted are these: in vivo.
For data set [6], the target named is Serine/threonine-protein kinase PLK1 (Homo sapiens, UniProt P53350). Briefly: Inhibition of PLK1 (unknown origin) (37 to 345 residues) expressed in Escherichia coli BL21 (DE3) incubated for 18 hrs by fluorescence polarization assay. On the technique in general: In fluorescence polarisation assays a small probe gives low polarisation when free and higher when bound to something large.

Data set [7] has as its target Protein cereblon/Bromodomain-containing protein 4 (Homo sapiens, UniProt O60885+Q96SW2). In words: PROTAC activity at CRBN/BRD4 in human MV4-11 cells assessed as induction of degradation of BRD4 measured after 24 hrs by Western blot analysis. The class given is cell-based. For orientation: A western blot detects proteins with antibodies after separation by electrophoresis.

A further data set has as its system NCI/ADR-RES. In words: Antiproliferative activity against human MCF7ADR cells assessed as reduction in cell growth measured after 48 hrs by MTT assay. It is filed as functional, cell-based. (Tetrazolium dyes change colour on reduction, which living cells bring about.)
A further data set relates to HeLa. In words: Antiproliferative activity against human HeLa cells assessed as reduction in cell viability incubated for 24 hrs by MTT assay. It is filed as functional, cell-based.

Sequence of Serine/threonine-protein kinase PLK1 (P53350 whole entry, the tested form may be a part): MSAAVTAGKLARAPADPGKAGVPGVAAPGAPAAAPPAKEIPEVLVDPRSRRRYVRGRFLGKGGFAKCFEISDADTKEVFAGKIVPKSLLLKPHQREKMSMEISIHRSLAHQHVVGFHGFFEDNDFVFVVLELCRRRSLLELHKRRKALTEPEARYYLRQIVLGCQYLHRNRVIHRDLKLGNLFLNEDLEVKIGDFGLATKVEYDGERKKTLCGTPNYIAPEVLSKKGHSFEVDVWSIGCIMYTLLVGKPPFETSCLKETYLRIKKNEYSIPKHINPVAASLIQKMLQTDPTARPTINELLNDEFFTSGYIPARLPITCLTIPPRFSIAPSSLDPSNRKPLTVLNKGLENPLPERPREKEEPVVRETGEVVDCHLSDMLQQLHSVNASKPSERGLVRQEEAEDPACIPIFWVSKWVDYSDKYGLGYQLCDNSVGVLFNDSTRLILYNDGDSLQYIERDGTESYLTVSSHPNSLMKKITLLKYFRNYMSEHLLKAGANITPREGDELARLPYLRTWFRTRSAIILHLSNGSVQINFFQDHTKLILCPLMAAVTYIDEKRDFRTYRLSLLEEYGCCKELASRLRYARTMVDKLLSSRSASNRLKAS
Sequence of Protein cereblon/Bromodomain-containing protein 4 (Q96SW2 whole entry, looked up, other chains not shown): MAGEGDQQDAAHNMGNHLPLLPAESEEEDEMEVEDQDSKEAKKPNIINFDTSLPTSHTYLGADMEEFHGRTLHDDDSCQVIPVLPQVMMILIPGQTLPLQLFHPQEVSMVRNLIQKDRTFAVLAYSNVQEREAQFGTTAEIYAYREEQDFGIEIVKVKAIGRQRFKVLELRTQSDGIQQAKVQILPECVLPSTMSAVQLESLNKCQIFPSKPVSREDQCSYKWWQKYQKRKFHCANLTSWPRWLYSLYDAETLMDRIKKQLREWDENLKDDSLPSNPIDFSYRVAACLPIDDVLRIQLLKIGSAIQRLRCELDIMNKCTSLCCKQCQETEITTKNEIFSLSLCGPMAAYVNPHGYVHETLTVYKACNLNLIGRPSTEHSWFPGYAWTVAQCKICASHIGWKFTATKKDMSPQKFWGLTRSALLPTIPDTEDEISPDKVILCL

For `CCc1cc2c(cc1N1CCN(CCCCC(=O)NCC3CC4C=CC3C4)CC1)C(C)(C)c1[nH]c3cc(C#N)ccc3c1C2=O` (stereo unspecified), the results for the half-life in data set [1] and in [5] were 31.7 min and 25.2 min, respectively. Also, the CL/F (usually the apparent clearance, not corrected for the fraction that reaches the circulation) in data set [2] amounted to 41.4 mL/min/kg. In data set [3], the clearance (commonly the rate of elimination divided by the concentration) amounted to 138 mL/min/kg. In [4], the bioavailability (commonly dose-corrected exposure relative to a reference, in per cent) was found to be 8.6%.
`CC1=C/C(=N\OC(=O)c2ccc(CNC(=O)CCc3cn(CCCCCCOCCOCCNC(=O)[C@H](C)CCC4C5CC6CC(C5)CC4C6)nn3)cc2C)C(C)=CC1=O` (stereo partly specified): in data set [6], the midpoint of inhibition, the IC50, lay at 48.2 µM.
Turning to `CC(C)C[C@H](NC(=O)[C@H](C)NC(=O)[C@H](C)NC(=O)[C@H](C)NC(=O)[C@H](C)NC(=O)[C@H](CC(C)C)NC(=O)[C@@H](N)CCCNC(=N)N)C(=O)N[C@@H](CC(C)C)C(=O)N1CCC[C@H]1C(=O)N1CCC[C@H]1C(=O)N[C@H](C(=O)N[C@@H](CCC(=O)O)C(=O)N[C@@H](CCC(N)=O)C(=O)N[C@@H](CC(=O)O)C(=O)N[C@@H](CC(C)C)C(=O)N[C@@]1(C)CCC/C=C\CCC[C@@](C)(C(=O)N[C@@H](Cc2ccc(O)cc2)C(N)=O)NC(=O)[C@H](CC2CCCCC2)NC(=O)[C@H](CC(C)C)NC(=O)[C@H](CCCCN)NC1=O)[C@@H](C)O`, the DC50 – broadly, the midpoint of the concentration-degradation curve – in [7] worked out at 10 µM.
Regarding `CC1=CC(=O)[C@H]2/C(C=O)=C\C[C@H]3[C@@H]([C@@H](C)/C=C\C=C/C(=O)OCCOCCOCCOC(=O)CC45CC6CC(CC(C6)C4)C5)CC[C@]3(C)C[C@H]12`, the IC50 (usually the concentration needed to halve the response being measured) in the data set with NCI/ADR-RES was determined as 0.48 µM.
With `CC1=CC(=O)[C@H]2/C(C=O)=C\C[C@H]3[C@@H]([C@@H](C)/C=C\C=C/C(=O)OCCOCCOCCOCCOC(=O)CC45CC6CC(CC(C6)C4)C5)CC[C@]3(C)C[C@H]12`, in the data set on NCI/ADR-RES, the half-inhibitory concentration (IC50) turned out to be 2.03 µM.
As for `CC(C)C[C@H](NC(=O)CCOCCOCCOCCNC(=O)CNC1C2CC3CC(C2)CC1C3)C(=O)N[C@@H](CC(C)C)C(=O)N1CCC[C@H]1C(=O)N1CCC[C@H]1C(=O)N[C@H](C(=O)N[C@@H](CCC(=O)O)C(=O)N[C@@H](CCC(N)=O)C(=O)N[C@@H](CC(=O)O)C(=O)N[C@@H](CC(C)C)C(=O)N[C@@]1(C)CCC/C=C\CCC[C@@](C)(C(=O)N[C@@H](Cc2ccc(O)cc2)C(N)=O)NC(=O)[C@H](CC2CCCCC2)NC(=O)[C@H](CC(C)C)NC(=O)[C@H](CCCCN)NC1=O)[C@@H](C)O` (stereo partly specified), the DC50 in data set [7] amounted to 5 µM.
As for `CC1=CC(=O)[C@H]2/C(C=O)=C\C[C@H]3[C@@H]([C@@H](C)/C=C\C=C/C(=O)OCCOCCOC(=O)CC45CC6CC(CC(C6)C4)C5)CC[C@]3(C)C[C@H]12`, the IC50 with NCI/ADR-RES amounted to 0.87 µM.
On the same count and under the same terms, for `CC1=CC(=O)[C@H]2/C(C=O)=C\C[C@H]3[C@@H]([C@@H](C)/C=C\C=C/C(=O)OCCCOC(=O)CC45CC6CC(CC(C6)C4)C5)CC[C@]3(C)C[C@H]12` the value was 0.96 µM.
For `CC1=C/C(=N/OC(=O)c2ccccc2C)C(C)=CC1=O`, the IC50 with HeLa was determined as 10.5 µM; in data set [6] it was 1.4 µM.
In turn, `CC1=C/C(=N\OC(=O)c2ccc(CNC(=O)CCc3cn(CCCCCCOCCOCCNC(=O)CC4C5CC6CC(C5)CC4C6)nn3)cc2C)C(C)=CC1=O` (stereo unspecified) had an IC50 in data set [6] of 10.5 µM.
For the compound `CC1=CC(=O)[C@H]2/C(C=O)=C\C[C@H]3[C@@H]([C@@H](C)/C=C\C=C/C(=O)OCCCCCCCCOC(=O)CC45CC6CC(CC(C6)C4)C5)CC[C@]3(C)C[C@H]12`, the IC50 in the data set on NCI/ADR-RES came out at 1.49 µM.
